pIC50: −log10 of the molar value.
Test system: Plasmodium berghei
Experiment: Luciferase/luciferin-expressing antifolate-resistant parasites were used to infect a culture of HepG2 cells that were pre-incubated with compounds. Infected hepatocytes emit light due to the luciferase reaction. Assay results are presented as the percent inhibition of light emission compared to control. […]
Assay type: functional
Conditions: sporozoite; for IC90: read-out: LUCIFERASE INFECTION ASSAY - IC90
[1] = read-out: LUCIFERASE INFECTION ASSAY - IC50

| Compound | IC90 [µM] | further results |
| --- | --- | --- |
| O=C(Nc1ccc(CNc2ncnc3cc(Cl)ccc23)cc1)C1CC1 | 1.46 | pIC50 [1]: 6.26 |
| O=C1C(=C2NC=C(c3ccc(Cl)cc3)O2)Sc2ncccc21 | 1.69 | pIC50 (HEPG2TOX_HILL_SLOPE 1.16, HEPG2TOX_R_SQUARED 0.581, PBLUC_HILL_SLOPE 117, PBLUC_R_SQUARED 0.316, read-out: LUCIFERASE INFECTION ASSAY - IC50): 5.78 |
| Cc1coc(C)c1C(=O)/C=C/c1ccc2cccnc2c1 | 2.69 | pIC50 [1]: 5.60 |
| Cc1ccc(C)c(NC(=O)C(OC(=O)c2c3c(nc4ccccc24)CCN(C)C3)c2ccccc2)c1 (configuration not stated) | > 10 | pIC50 (HEPG2TOX_HILL_SLOPE 0.135, HEPG2TOX_R_SQUARED 0.194, read-out: LUCIFERASE INFECTION ASSAY - IC50): < 5.00 |
| CCc1c(C)nc2c(-c3ccccc3)c(C)nn2c1Nc1ccc(NC(C)=O)cc1 | > 8.26 | pIC50 (PBLUC_HILL_SLOPE 3.43, PBLUC_R_SQUARED 0.461, read-out: LUCIFERASE INFECTION ASSAY - IC50): 5.26 |
| N#Cc1ccc(-c2cnc3cnc(-c4cnn(Cc5ccccc5)c4)cn23)cc1 | > 8.77 | pIC50 (FFLUC_HILL_SLOPE 0.364, FFLUC_R_SQUARED 0.0429, PBLUC_HILL_SLOPE 3.85, PBLUC_R_SQUARED 0.0396, read-out: LUCIFERASE INFECTION ASSAY - IC50): 5.12 |
| COc1cc(OC)cc(-c2cnc3cnc(-c4cccc(C)c4C)cn23)c1 | 8.63 | pIC50 (HEPG2TOX_HILL_SLOPE 2.52, HEPG2TOX_R_SQUARED 0.881, PBLUC_HILL_SLOPE 5.04, PBLUC_R_SQUARED 0.463, read-out: LUCIFERASE INFECTION ASSAY - IC50): 5.25 |
| Cc1ccc(COC(=O)c2ccccc2S(=O)(=O)N2CCCCC2)cc1 | > 10 | pIC50 [1]: 5.01 |
| O=C1Nc2cc(Cl)ccc2/C1=C\c1nn(Cc2ccccc2)cc1-c1cccnc1 | > 10 | pIC50 (FFLUC_HILL_SLOPE 16.7, FFLUC_R_SQUARED 0.641, read-out: LUCIFERASE INFECTION ASSAY - IC50): < 5.00 |
| Cc1cc(C(=O)CN2CCC(C(=O)Nc3ccc4c(c3)OCO4)CC2)c(C)n1Cc1cccs1 | > 10 | pIC50 (FFLUC_HILL_SLOPE 9.45, FFLUC_R_SQUARED 0.378, read-out: LUCIFERASE INFECTION ASSAY - IC50): < 5.00 |
| O=C(O/N=C(\Nc1ccc(OC(F)(F)F)cc1)c1c(Cl)cccc1Cl)c1ccccc1C(F)(F)F | > 6.14 | pIC50 (PBLUC_HILL_SLOPE 1.69, PBLUC_R_SQUARED 0.564, read-out: LUCIFERASE INFECTION ASSAY - IC50): < 5.21 |
| N#Cc1ccc(/C=N/n2c(-c3ccc(F)cc3)cs/c2=N\c2cccnc2)cc1 | > 10 | pIC50 (FFLUC_HILL_SLOPE 41.3, FFLUC_R_SQUARED 0.462, HEPG2TOX_HILL_SLOPE 8.97, HEPG2TOX_R_SQUARED 0.901, PBLUC_HILL_SLOPE 3.58, PBLUC_R_SQUARED 0.653, read-out: LUCIFERASE INFECTION ASSAY - IC50): 5.24 |
| COc1ccc(OCc2nc(-c3ccc4c(c3)C(C)(C)CCC4(C)C)cs2)cc1 | > 8.1 | pIC50 [1]: < 5.09 |
| COCCCN1C(=O)N(Cc2ccccc2)C(=O)C12CCN(Cc1cccc(-c3ccco3)c1)CC2 | > 6.77 | pIC50 (PBLUC_HILL_SLOPE 3.26, PBLUC_R_SQUARED 0.648, read-out: LUCIFERASE INFECTION ASSAY - IC50): 5.34 |
| CC(=O)c1c(C)[nH]c(-c2csc(-c3ccc(C)cc3C)n2)c1C | 5.96 | pIC50 (PBLUC_HILL_SLOPE 2.12, PBLUC_R_SQUARED 0.351, read-out: LUCIFERASE INFECTION ASSAY - IC50): 5.67 |
| Cc1nc2c3ccccc3nc(SCC(=O)Nc3ccccc3)n2n1 | 1.43 | pIC50 (HEPG2TOX_HILL_SLOPE 1.21, HEPG2TOX_R_SQUARED 0.956, PBLUC_HILL_SLOPE 1.03, PBLUC_R_SQUARED 0.933, read-out: LUCIFERASE INFECTION ASSAY - IC50): 6.77 |
| Cc1cc(C(=O)Cn2c(C(C)O)nc3ccccc32)c(C)n1-c1ccc(F)c(Cl)c1 (configuration not stated) | > 10 | pIC50 (PBLUC_HILL_SLOPE 2.79, PBLUC_R_SQUARED 0.449, read-out: LUCIFERASE INFECTION ASSAY - IC50): 5.14 |
| c1coc(CC2CCCC2Nc2c3ccccc3nc3ccccc23)c1 (configuration not stated) | 1.22 | pIC50 (PBLUC_HILL_SLOPE 13.4, PBLUC_R_SQUARED 0.585, read-out: LUCIFERASE INFECTION ASSAY - IC50): 5.98 |
| COc1ccc(Sc2ccc(NC(=O)C(C)n3ccnc3)cc2Cl)cc1 (configuration not stated) | > 10 | pIC50 [1]: < 5.00 |
| CCC(NCC(O)COc1ccccc1C(C)C)c1ccc(Br)cc1 (configuration not stated) | > 10 | pIC50 (PBLUC_HILL_SLOPE 15.5, PBLUC_R_SQUARED 0.67, read-out: LUCIFERASE INFECTION ASSAY - IC50): 5.03 |
| CCOc1ccc(Oc2ccc(S(=O)(=O)Oc3ccccc3C(N)=O)cc2)cc1 | 3.39 | pIC50 (PBLUC_HILL_SLOPE 12.7, PBLUC_R_SQUARED 0.259, read-out: LUCIFERASE INFECTION ASSAY - IC50): 5.55 |

| Compound | IC90 [µM] | further results |
| --- | --- | --- |
| CCOC(=O)c1cnn(-c2ccc(NC(=O)c3sc4nc5n(c(=O)c4c3C)CCC5)cc2)c1C | 2.97 | pIC50 (HEPG2TOX_HILL_SLOPE 2.74, HEPG2TOX_R_SQUARED 0.98, PBLUC_HILL_SLOPE 1.74, PBLUC_R_SQUARED 0.848, read-out: LUCIFERASE INFECTION ASSAY - IC50): 6.08 |
| c1ccc(CNc2nc3cnc(-c4ccc5ccccc5c4)cc3[nH]2)cc1 | > 10 | pIC50 (HEPG2TOX_HILL_SLOPE 2.88, HEPG2TOX_R_SQUARED 0.737, PBLUC_HILL_SLOPE 2.3, PBLUC_R_SQUARED 0.668, read-out: LUCIFERASE INFECTION ASSAY - IC50): 5.31 |
| Clc1ccc2c(NCc3ccc(N4CCOCC4)nc3)ncnc2c1 | > 10 | pIC50 [1]: < 5.00 |
| CC(OC(=O)c1cc([N+](=O)[O-])ccc1N(C)C)C(=O)Nc1ccc(Cl)cn1 (configuration not stated) | 1.83 | pIC50 (HEPG2TOX_HILL_SLOPE 1.79, HEPG2TOX_R_SQUARED 0.979, PBLUC_HILL_SLOPE 1.96, PBLUC_R_SQUARED 0.845, read-out: LUCIFERASE INFECTION ASSAY - IC50): 6.22 |
| CC(C)OCCCn1c(S/C=C/c2ccc([N+](=O)[O-])o2)nc2ccccc2c1=O | > 10 | pIC50 (FFLUC_HILL_SLOPE 0.75, FFLUC_R_SQUARED 0.0694, read-out: LUCIFERASE INFECTION ASSAY - IC50): < 5.00 |
| Cc1noc(C)c1-c1nccc2n[nH]c(-c3ccccc3)c12 | > 10 | pIC50 (PBLUC_HILL_SLOPE 15.1, PBLUC_R_SQUARED 0.272, read-out: LUCIFERASE INFECTION ASSAY - IC50): 5.03 |
| Cc1ccc2c(COC(=O)[C@@H]3CCCN3C(=O)c3cccs3)cc(=O)oc2c1 | > 10 | pIC50 [1]: < 5.00 |
| S=C(Nc1ccccc1)N1CCCN(c2nc3ccc(Cl)cc3s2)CC1 | 3.16 | pIC50 (HEPG2TOX_HILL_SLOPE 1.54, HEPG2TOX_R_SQUARED 0.918, PBLUC_HILL_SLOPE 12.4, PBLUC_R_SQUARED 0.732, read-out: LUCIFERASE INFECTION ASSAY - IC50): 5.58 |
| Nc1cc(Cl)c(-n2cccc2)cc1Oc1ccc(Cl)cc1 | > 10.3 | pIC50 (FFLUC_HILL_SLOPE 2.28, FFLUC_R_SQUARED 0.58, read-out: LUCIFERASE INFECTION ASSAY - IC50): < 4.99 |
| Cc1ccc2nc(NC(=O)c3ccc(F)c(F)c3)c(C(=O)NCC(C)C)n2c1 | > 8.54 | pIC50 (PBLUC_HILL_SLOPE 0.472, PBLUC_R_SQUARED 0.144, read-out: LUCIFERASE INFECTION ASSAY - IC50): < 5.07 |
| CCOC(=O)c1c(C2CC2)csc1NC(=O)COC(=O)c1cc(C)n(-c2cc(Cl)ccc2OC)c1C | > 10 | pIC50 (FFLUC_HILL_SLOPE 35.2, FFLUC_R_SQUARED 0.269, read-out: LUCIFERASE INFECTION ASSAY - IC50): < 5.00 |
| Cc1nn(-c2ccccc2)c2c1C(c1c[nH]c3ccccc13)N1C(=N2)C(N2CCN(c3ccc(F)cc3)CC2)=Nc2ccccc21 (configuration not stated) | > 10 | pIC50 [1]: < 5.00 |
| CCCn1c(NC(=O)C2CCCN2C(=O)C23CC4CC(CC(C4)C2)C3)nc2ccccc21 (configuration not stated) | 9.69 | pIC50 (PBLUC_HILL_SLOPE 41.1, PBLUC_R_SQUARED 0.0887, read-out: LUCIFERASE INFECTION ASSAY - IC50): 5.04 |
| O=C(Nc1cc(Cl)cc(Cl)c1)Nc1cc(-c2cccs2)n[nH]1 | 9.3 | pIC50 (FFLUC_HILL_SLOPE 1.15, FFLUC_R_SQUARED 0.0672, PBLUC_HILL_SLOPE 14.1, PBLUC_R_SQUARED 0.219, read-out: LUCIFERASE INFECTION ASSAY - IC50): 5.10 |
| CCOc1ccc(Oc2ccc(Cl)cc2NCC(=O)N(C)CC(=O)NC(C)C)cc1 | > 10 | pIC50 [1]: < 5.00 |
| O=C(/C=C/c1cnn(Cc2ccccc2)c1)N1CCN(Cc2ccc(Cl)cc2)CC1 | 6.97 | pIC50 (PBLUC_HILL_SLOPE 126, PBLUC_R_SQUARED 0.0794, read-out: LUCIFERASE INFECTION ASSAY - IC50): 5.16 |
| O=C(CCc1c(-c2ccc(F)cc2)[nH]c2ccc(F)cc12)N1CCN(c2ccccn2)CC1 | 3.87 | pIC50 [1]: 5.50 |
| O=C(CN1c2cccc3cccc(c23)S1(=O)=O)Nc1ccc(-c2nc3ccccc3[nH]2)cc1 | > 10 | pIC50 [1]: < 5.00 |
| CS(=O)(=O)Nc1cccc(-c2cn3c(-c4cccc(O)c4)cnc3cn2)c1 | 8.16 | pIC50 (HEPG2TOX_HILL_SLOPE 7.05, HEPG2TOX_R_SQUARED 0.671, PBLUC_HILL_SLOPE 23.9, PBLUC_R_SQUARED 0.257, read-out: LUCIFERASE INFECTION ASSAY - IC50): 5.13 |
| CCCCNC(=O)c1c(NC(=O)COc2ccccc2)nc2ccccn12 | > 9.01 | pIC50 (FFLUC_HILL_SLOPE 15.1, FFLUC_R_SQUARED 0.601, PBLUC_HILL_SLOPE 2.91, PBLUC_R_SQUARED 0.515, read-out: LUCIFERASE INFECTION ASSAY - IC50): 5.29 |

Source: ChEMBL document CHEMBL4483862, “Open-source discovery of chemical leads for next-generation chemoprotective antimalarials” (2018)
